Measured values from ChEMBL document CHEMBL3885881, “DrugMatrix”.

Species: Rattus norvegicus
Assay: DrugMatrix - Regimen: Daily Repeat
Assay type: toxicity, organism-based, Sprague-Dawley
Parameters: regimen Daily Repeat, gender Male, age 6-8 weeks
Conditions: in vivo, po, route oral GAVAGE, vehicle .5 % CMC; for ALANINE AMINOTRANSFERASE / ALBUMIN / ALKALINE PHOSPHATASE / ASPARTATE AMINOTRANSFERASE / BLOOD UREA NITROGEN / CARBON DIOXIDE / CHLORIDE / CHOLESTEROL / CREATINE PHOSPHOKINASE / CREATININE / GLUCOSE / LACTATE DEHYDROGENASE / LIPASE / PHOSPHORUS / POTASSIUM / SODIUM / TOTAL BILIRUBIN / TOTAL PROTEIN / URIC ACID: tissue Plasma; for ABSOLUTE BASOPHIL / ABSOLUTE EOSINOPHIL / ABSOLUTE LYMPHOCYTE / ABSOLUTE MONOCYTE / ABSOLUTE SEGMENTED NEUTROPHIL / BASOPHIL / EOSINOPHIL / ERYTHROCYTE COUNT / HEMATOCRIT / HEMOGLOBIN / LEUKOCYTE COUNT / LYMPHOCYTE / MEAN CORPUSCULAR HEMOGLOBIN / MEAN CORPUSCULAR HEMOGLOBIN CONCENTRATION / MEAN CORPUSCULAR VOLUME / MONOCYTE / NEUTROPHIL / NUCLEATED RED BLOOD CELLS / PLATELET COUNT: tissue Blood
[1] = 10 mg/kg, 72 h, dose level Low, time 3 day
[2] = 10 mg/kg, 120 h, dose level Low, time 5 day
[3] = 2500 mg/kg, 72 h, dose level High, time 3 day

**Q.** CCOC(=O)[C@H](CCc1ccccc1)N[C@@H](C)C(=O)N1Cc2ccccc2C[C@H]1C(=O)O was tested. Which “ALANINE AMINOTRANSFERASE” value [1] did it give?
**A.** 57.33 u/L

**Q.** What about the ALBUMIN [1] of the same compound?
**A.** 4.43 G/DL

**Q.** What about the “ALKALINE PHOSPHATASE” value [1] of the same compound?
**A.** 414 u/L

**Q.** What about the “ASPARTATE AMINOTRANSFERASE” value [1] of the same compound?
**A.** 111.67 u/L

**Q.** What about the “BLOOD UREA NITROGEN” value [1] of the same compound?
**A.** 19.33 mg/dL

**Q.** And the “CARBON DIOXIDE” value [1]?
**A.** 27 mmol/L

**Q.** And the CHLORIDE [1]?
**A.** 101.33 MEQ/L

**Q.** What about the CHOLESTEROL [1] of the same compound?
**A.** 71.67 mg/dL

**Q.** And the “CREATINE PHOSPHOKINASE” value [1]?
**A.** 1227 u/L

**Q.** What about the CREATININE [1] of the same compound?
**A.** 0.15 mg/dL

**Q.** What about the GLUCOSE [1] of the same compound?
**A.** 179.67 mg/dL

**Q.** And the “LACTATE DEHYDROGENASE” value [1]?
**A.** 229.67 u/L

**Q.** What about the LIPASE [1] of the same compound?
**A.** 10 u/L

**Q.** And the PHOSPHORUS [1]?
**A.** 12.13 mg/dL

**Q.** And the POTASSIUM [1]?
**A.** 6.89 MEQ/L

**Q.** What about the SODIUM [1] of the same compound?
**A.** 142.53 MEQ/L

**Q.** And the “TOTAL BILIRUBIN” value [1]?
**A.** 0.23 mg/dL

**Q.** And the “TOTAL PROTEIN” value [1]?
**A.** 6.1 G/DL

**Q.** And the “URIC ACID” value [1]?
**A.** 1.73 mg/dL

**Q.** And the “ABSOLUTE BASOPHIL” value [2]?
**A.** 0 CELLS/uL

**Q.** What about the “ABSOLUTE EOSINOPHIL” value [2] of the same compound?
**A.** 0 CELLS/uL

**Q.** And the “ABSOLUTE LYMPHOCYTE” value [2]?
**A.** 9146.67 CELLS/uL

**Q.** What about the “ABSOLUTE MONOCYTE” value [2] of the same compound?
**A.** 149.33 CELLS/uL

**Q.** What about the “ABSOLUTE SEGMENTED NEUTROPHIL” value [2] of the same compound?
**A.** 970.67 CELLS/uL

**Q.** What about the BASOPHIL [2] of the same compound?
**A.** 0%

**Q.** What about the EOSINOPHIL [2] of the same compound?
**A.** 0%

**Q.** What about the “ERYTHROCYTE COUNT” value [2] of the same compound?
**A.** 5.39 x10E6/uL

**Q.** What about the HEMATOCRIT [2] of the same compound?
**A.** 34.63%

**Q.** And the HEMOGLOBIN [2]?
**A.** 13.67 G/DL

**Q.** What about the “LEUKOCYTE COUNT” value [2] of the same compound?
**A.** 10.27 x10E3/uL

**Q.** What about the LYMPHOCYTE [2] of the same compound?
**A.** 89.33%

**Q.** What about the “MEAN CORPUSCULAR HEMOGLOBIN” value [2] of the same compound?
**A.** 25.4 pg

**Q.** What about the “MEAN CORPUSCULAR HEMOGLOBIN CONCENTRATION” value [2] of the same compound?
**A.** 39.47 G/DL

**Q.** What about the “MEAN CORPUSCULAR VOLUME” value [2] of the same compound?
**A.** 64.27 fL

**Q.** What about the MONOCYTE [2] of the same compound?
**A.** 1.33%

**Q.** And the NEUTROPHIL [2]?
**A.** 9.33%

**Q.** And the “NUCLEATED RED BLOOD CELLS” value [2]?
**A.** 0 /100WBC

**Q.** What about the “PLATELET COUNT” value [2] of the same compound?
**A.** 1332.67 x10E3/uL

**Q.** What about the “ALANINE AMINOTRANSFERASE” value [2] of the same compound?
**A.** 53 u/L

**Q.** What about the ALBUMIN [2] of the same compound?
**A.** 4.43 G/DL

**Q.** And the “ALKALINE PHOSPHATASE” value [2]?
**A.** 351.67 u/L

**Q.** And the “ASPARTATE AMINOTRANSFERASE” value [2]?
**A.** 77 u/L

**Q.** What about the “BLOOD UREA NITROGEN” value [2] of the same compound?
**A.** 17.33 mg/dL

**Q.** What about the “CARBON DIOXIDE” value [2] of the same compound?
**A.** 31.33 mmol/L

**Q.** What about the CHLORIDE [2] of the same compound?
**A.** 101.33 MEQ/L

**Q.** And the CHOLESTEROL [2]?
**A.** 100.67 mg/dL

**Q.** And the “CREATINE PHOSPHOKINASE” value [2]?
**A.** 265.67 u/L

**Q.** And the CREATININE [2]?
**A.** 0.14 mg/dL

**Q.** And the GLUCOSE [2]?
**A.** 137.33 mg/dL

**Q.** And the “LACTATE DEHYDROGENASE” value [2]?
**A.** 201.67 u/L

**Q.** What about the LIPASE [2] of the same compound?
**A.** 10 u/L

**Q.** What about the PHOSPHORUS [2] of the same compound?
**A.** 11.8 mg/dL

**Q.** What about the POTASSIUM [2] of the same compound?
**A.** 6.69 MEQ/L

**Q.** What about the SODIUM [2] of the same compound?
**A.** 143.93 MEQ/L

**Q.** And the “TOTAL BILIRUBIN” value [2]?
**A.** 0.23 mg/dL

**Q.** What about the “TOTAL PROTEIN” value [2] of the same compound?
**A.** 6.3 G/DL

**Q.** What about the “URIC ACID” value [2] of the same compound?
**A.** 1.2 mg/dL

**Q.** And the “ABSOLUTE BASOPHIL” value [3]?
**A.** 0 CELLS/uL

**Q.** And the “ABSOLUTE EOSINOPHIL” value [3]?
**A.** 56.33 CELLS/uL

**Q.** What about the “ABSOLUTE LYMPHOCYTE” value [3] of the same compound?
**A.** 14978 CELLS/uL

**Q.** And the “ABSOLUTE MONOCYTE” value [3]?
**A.** 125.33 CELLS/uL

**Q.** What about the “ABSOLUTE SEGMENTED NEUTROPHIL” value [3] of the same compound?
**A.** 2373.67 CELLS/uL

**Q.** And the BASOPHIL [3]?
**A.** 0%

**Q.** What about the EOSINOPHIL [3] of the same compound?
**A.** 0.33%

**Q.** And the “ERYTHROCYTE COUNT” value [3]?
**A.** 5.38 x10E6/uL

**Q.** What about the HEMATOCRIT [3] of the same compound?
**A.** 35.27%

**Q.** And the HEMOGLOBIN [3]?
**A.** 13.67 G/DL

**Q.** And the “LEUKOCYTE COUNT” value [3]?
**A.** 17.53 x10E3/uL

**Q.** And the LYMPHOCYTE [3]?
**A.** 85.67%

**Q.** And the “MEAN CORPUSCULAR HEMOGLOBIN” value [3]?
**A.** 25.4 pg

**Q.** What about the “MEAN CORPUSCULAR HEMOGLOBIN CONCENTRATION” value [3] of the same compound?
**A.** 38.77 G/DL

**Q.** What about the “MEAN CORPUSCULAR VOLUME” value [3] of the same compound?
**A.** 65.5 fL

**Q.** What about the MONOCYTE [3] of the same compound?
**A.** 0.67%

**Q.** And the NEUTROPHIL [3]?
**A.** 13.33%

**Q.** What about the “NUCLEATED RED BLOOD CELLS” value [3] of the same compound?
**A.** 0 /100WBC

**Q.** And the “PLATELET COUNT” value [3]?
**A.** 1317 x10E3/uL

**Q.** What about the “ALANINE AMINOTRANSFERASE” value [3] of the same compound?
**A.** 63.33 u/L

**Q.** And the ALBUMIN [3]?
**A.** 4.37 G/DL

**Q.** What about the “ALKALINE PHOSPHATASE” value [3] of the same compound?
**A.** 310 u/L

**Q.** And the “ASPARTATE AMINOTRANSFERASE” value [3]?
**A.** 80.67 u/L

**Q.** And the “BLOOD UREA NITROGEN” value [3]?
**A.** 19.33 mg/dL

**Q.** What about the “CARBON DIOXIDE” value [3] of the same compound?
**A.** 28.67 mmol/L

**Q.** And the CHLORIDE [3]?
**A.** 98.67 MEQ/L

**Q.** And the CHOLESTEROL [3]?
**A.** 107 mg/dL

**Q.** What about the “CREATINE PHOSPHOKINASE” value [3] of the same compound?
**A.** 346.67 u/L

**Q.** What about the CREATININE [3] of the same compound?
**A.** 0.21 mg/dL

**Q.** And the GLUCOSE [3]?
**A.** 155.67 mg/dL

**Q.** What about the “LACTATE DEHYDROGENASE” value [3] of the same compound?
**A.** 272.33 u/L

**Q.** What about the LIPASE [3] of the same compound?
**A.** 12.33 u/L

**Q.** And the PHOSPHORUS [3]?
**A.** 12.8 mg/dL

**Q.** And the POTASSIUM [3]?
**A.** 6.92 MEQ/L

**Q.** What about the SODIUM [3] of the same compound?
**A.** 140.37 MEQ/L

**Q.** And the “TOTAL BILIRUBIN” value [3]?
**A.** 0.17 mg/dL

**Q.** And the “TOTAL PROTEIN” value [3]?
**A.** 6.17 G/DL

**Q.** And the “URIC ACID” value [3]?
**A.** 1.6 mg/dL
